Columns and labels:
murine thymocyte = assay: thymocyte proliferation stimulated by ConA and IL-1α; type: cell-based, murine (female Balb/C mice); conditions: ConA 0.25 μg/ml, IL-1α 12.5 ng/ml; drug 2 h prior
Method: A thymocyte costimulator assay is conducted to evaluate the inventive compounds to inhibit activation and proliferation of thymocytes caused by stimulation with Con A and interleukin-1 (IL-1), or […]. Thymuses are obtained from mice (e.g., female Balb/C mice) and the thymuses are removed and dissociated into culture media (e.g., RPMI 1640 without serum supplementation). The dissociated thymus tissue and cell suspension is transferred to centrifuge tubes and allowed to settle, washed with HBSS and resuspended in serum-supplemented culture media (e.g., RPMI 1640 with 10% fetal calf serum). Any contaminating red cells are lysed, and viable cells are resuspended and counted. Thymocytes are plated (e.g., 96-well plates at a density of 2×10^5 cells/well) and a stimulating agent, such as Con A, IL-1 (e.g., IL-1α) or IL-2 is added to the well. The cells are incubated for 4 days at 37° C. On the fourth day, the cells are pulsed with tritiated thymidine and cell proliferation determined. […]
1521 on inhibition of murine thymocyte proliferation stimulated by Concanavalin A (ConA) and interleukin-I alpha (IL-1α). Thymuses were obtained from normal, female Balb/C mice. The thymuses were dissociated and plated into 96-well plates at a density of 2×10^5 cells/well. […] The cells were harvested and incorporated tritiated thymidine was determined in a liquid scintillation counter. […]

VCAM in HUVEC cells = assay: cell surface expression of VCAM in HUVEC; type: cell-based, human; conditions: human TNF-α 20 ng/ml, 20 hours; FIG. 11
Method: Drug inhibitory activity can also be measured by determining levels of vascular cell adhesion molecule (VCAM) in stimulated cells. Early passage human umbilical vein endothelial cells (HUVEC) (obtained from commercial suppliers such as Cell Systems, Inc. or Clonetics) are cultured in media (e.g., Hepes buffered media, Cell Systems) containing 10% fetal bovine serum, and supplemented with a stimulating agent, such as fibroblast growth factor (acidic FGF, Cell Systems, Inc.) or TNF. The cells are plated into wells of a microtiter plate (e.g., 5×10^4 per well) and allowed to incubate at 37° C. for 72 hrs. The resting cells are removed (e.g., 20-30 min treatment with 0.4% EDTA), washed in media (e.g., phosphate buffered saline plus 0.1% bovine serum albumin with 0.01% sodium azide) and labeled on ice with a monoclonal antibody ("first antibody") recognizing human VCAM (e.g., 1 μg of a murine monoclonal antibody recognizing human VCAM, Genzyme). After 60 min on ice, the cells are washed (preferably twice) with cold wash media and incubated with an antibody that recognizes the first antibody (e.g., 1 μg of goat anti-mouse IgG conjugated with phycoerythrin, CalTag, Inc.). After 30 min on ice, the cells are washed twice and analyzed on a flow cytometer (Coulter Elite®) at appropriate emission and excitation wavelengths (e.g., for phycoerytlrin use excitation at 488 nm and emission at 525 nm).
The cells were stimulated with human TNF-α (20 ng/ml) for 20 hours and then stained for immunofluorescence using a monoclonal antibody recognizing VCAM, followed by a goat anti-mouse antibody conjugated to phycoerythrin. The cells were analyzed for antibody binding using flow cytometry. […] 1521 and 1522 at the indicated drug concentrations.
This example was used to investigate inhibition of vascular cell adhesion molecule (VCAM) expression on HUVEC by inventive compound no. 2525. VCAM expression by endothelial cells is an early event in atherogenesis and multiple sclerosis, among other various autoimmune diseases. FIG. 17, a plot of percent surface expression versus concentration of compound no.

[1] = tested on: PBMC (peripheral blood mononuclear cells); assay: two-way mixed lymphocyte reaction; type: cell-based, human; conditions: FIG. 1; 6 days culture
Excerpt: Various in vitro assays can be used to measure effects of the inventive compounds to module immune activity and have antitumor activity using a variety of cellular types. For example, a mixed lymphocyte reaction (MLR) provides a valuable screening tool to determine biological activity of each inventive compound. In the MLR, PBMCs (peripheral blood mononuclear cells) are obtained by drawing whole blood from healthy volunteers in a heparinized container and diluted with an equal volume of hanks balanced salt solution (HBSS). This mixture is layered on a sucrose density gradient, such as a Ficoll-Hypaque® gradient (specific gravity 1.08), and centrifuged at 1000×g for 25 minutes at room temperature or cooler. PBMC are obtained from a band at a plasma-Ficoll interface, separated and washed at least twice in a saline solution, such as HBSS. Contaminating red cells are lysed, such as by ACK lysis for 10 min at 37° C., and the PBMCs are washed twice in HBSS. The pellet of purified PBMCs is resuspended in complete medium, such as RPMI 1640 plus 20% human inactivated serum. Proliferative response of PBMC to allogeneic stimulation is determined in a two-way MLR performed in a 96-well microtiter plate. Briefly, approximately 10^5 test purified PBMC cells in 200 μl complete medium are co-cultured with approximately 10^5 autologous (control culture) or allogeneic (stimulated culture) PBMC cells, wherein the allogeneic cells are from HLA disparate individuals. Varying doses of compounds (drug) are added at the time of addition of cells to the microtiter plate. The cultures are incubated for 6 days at 37° C. in a 5% CO2 atmosphere. At the conclusion of the incubation tritiated thymidine is added (for example, 1 μCi/well of 40 to 60 Ci/mmole) and proliferation determined by liquid scintillation. counting.
Example 10 illustrates a mixed lymphocyte reaction of inventive compounds nos. 1521 and 1522 (see above for chemical name and structure). […] Both compounds nos. […]

Compound	inhibition of thymocyte proliferation, ConA + IL-1α (murine thymocyte)	inhibition of cell surface expression of VCAM (VCAM in HUVEC cells)	proliferative response of PBMC to allogeneic stimulation (MLR) [1]
CC(CCCCn1c(=O)c2c(ncn2C)n(C)c1=O)=NO [Compound no. 1521]	inhibited thymocyte proliferation in a dose-response manner	inhibit cell surface expression of VCAM in HUVEC cells	showed activity in this immune modulating activity assay procedure
CON=C(C)CCCCn1c(=O)c2c(ncn2C)n(C)c1=O [Compound no. 1522]	inhibited thymocyte proliferation	inhibit cell surface expression of VCAM in HUVEC cells	showed activity in this immune modulating activity assay procedure

Reference: patent US5770595A, “Oxime substituted therapeutic compounds” (Cell Therapeutics, Inc., priority 1994, dated 1998)
